The values that follow are results of earlier work, collected in patent US20210038510A1, “FORMULATIONS OF KINASE INHIBITORS AND PROSTANOIDS” (PULMOKINE, INC., priority 2018, published 2021).

Data set [1] concerns rat monocrotaline model of PAH.
Data set [2] has as its system patients with advanced PAH.
Data set [3] relates to PDGFRβ isoform versus PDGFRα isoform.

Consider `Cc1ccc(NC(=O)c2ccc(CN3CCN(C)CC3)cc2)cc1Nc1nccc(-c2cccnc2)n1` [Imatinib, imatinib], for which, in data set [1], the “Right ventricular systolic pressure (RVSP)” value is listed as “decreases” and the Survival entry is listed as “improves survival”. The Cardiopulmonary hemodynamics entry in data set [2] is listed as “improves cardiopulmonary hemodynamics”. In addition, in data set [3], the “Potency against the PDGFRβ isoform compared with the PDGFRα isoform” value is “less potent”.
